Reference: BigSolDB 2.1

Question: With `C=CC(=O)Nc1cc(Nc2nccc(-c3cn(C)c4ccccc34)n2)c(OC)cc1N(C)CCN(C)C` as the molecule, how does the solubility (mole fraction) (in PEG-400, 298.2 K) read?
Answer: The solubility (mole fraction) was 0.00214.

Question: And the solubility (mole fraction) (in PEG-400, 303.2 K)?
Answer: Its solubility (mole fraction) is 0.00307.

Question: What about the solubility (mole fraction) (in PEG-400, 308.2 K) of the same molecule?
Answer: Its solubility (mole fraction) is 0.00421.

Question: And the solubility (mole fraction) (in PEG-400, 313.2 K)?
Answer: The solubility (mole fraction) was 0.00583.

Question: What about the solubility (mole fraction) (in PEG-400, 318.2 K) of the same molecule?
Answer: Its solubility (mole fraction) is 0.00733.

Question: What about the solubility (mole fraction) (in dichloromethane, 298.2 K) of the same molecule?
Answer: The solubility (mole fraction) was 0.000939.

Question: What about the solubility (mole fraction) (in dichloromethane, 303.2 K) of the same molecule?
Answer: The solubility (mole fraction) was 0.0014.

Question: And the solubility (mole fraction) (in dichloromethane, 308.2 K)?
Answer: Its solubility (mole fraction) is 0.00196.

Question: And the solubility (mole fraction) (in dichloromethane, 313.2 K)?
Answer: Its solubility (mole fraction) is 0.0028.

Question: What about the solubility (mole fraction) (in dichloromethane, 318.2 K) of the same molecule?
Answer: The solubility (mole fraction) was 0.00366.

Question: And the solubility (mole fraction) (in ethanol, 298.2 K)?
Answer: Its solubility (mole fraction) is 0.000472.

Question: What about the solubility (mole fraction) (in ethanol, 303.2 K) of the same molecule?
Answer: The solubility (mole fraction) was 0.000703.

Question: What about the solubility (mole fraction) (in ethanol, 308.2 K) of the same molecule?
Answer: Its solubility (mole fraction) is 0.000989.

Question: What about the solubility (mole fraction) (in ethanol, 313.2 K) of the same molecule?
Answer: The solubility (mole fraction) was 0.00131.

Question: What about the solubility (mole fraction) (in ethanol, 318.2 K) of the same molecule?
Answer: Its solubility (mole fraction) is 0.00176.

Question: What about the solubility (mole fraction) (in ethyl acetate, 298.2 K) of the same molecule?
Answer: The solubility (mole fraction) was 0.00129.

Question: What about the solubility (mole fraction) (in ethyl acetate, 303.2 K) of the same molecule?
Answer: The solubility (mole fraction) was 0.00174.

Question: What about the solubility (mole fraction) (in ethyl acetate, 308.2 K) of the same molecule?
Answer: Its solubility (mole fraction) is 0.00241.

Question: What about the solubility (mole fraction) (in ethyl acetate, 313.2 K) of the same molecule?
Answer: The solubility (mole fraction) was 0.0031.

Question: And the solubility (mole fraction) (in ethyl acetate, 318.2 K)?
Answer: Its solubility (mole fraction) is 0.00398.

Question: What about the solubility (mole fraction) (in isopropyl myristate, 298.2 K) of the same molecule?
Answer: Its solubility (mole fraction) is 0.000794.

Question: What about the solubility (mole fraction) (in isopropyl myristate, 303.2 K) of the same molecule?
Answer: Its solubility (mole fraction) is 0.00122.

Question: What about the solubility (mole fraction) (in isopropyl myristate, 308.2 K) of the same molecule?
Answer: The solubility (mole fraction) was 0.00186.

Question: What about the solubility (mole fraction) (in isopropyl myristate, 313.2 K) of the same molecule?
Answer: Its solubility (mole fraction) is 0.00263.

Question: And the solubility (mole fraction) (in isopropyl myristate, 318.2 K)?
Answer: The solubility (mole fraction) was 0.00344.

Question: And the solubility (mole fraction) (in propylene glycol, 298.2 K)?
Answer: The solubility (mole fraction) was 0.000766.

Question: What about the solubility (mole fraction) (in propylene glycol, 303.2 K) of the same molecule?
Answer: Its solubility (mole fraction) is 0.00106.

Question: And the solubility (mole fraction) (in propylene glycol, 308.2 K)?
Answer: Its solubility (mole fraction) is 0.00143.

Question: What about the solubility (mole fraction) (in propylene glycol, 313.2 K) of the same molecule?
Answer: Its solubility (mole fraction) is 0.00206.

Question: What about the solubility (mole fraction) (in propylene glycol, 318.2 K) of the same molecule?
Answer: Its solubility (mole fraction) is 0.00265.

Question: What about the solubility (mole fraction) (in transcutol, 298.2 K) of the same molecule?
Answer: The solubility (mole fraction) was 0.00144.

Question: What about the solubility (mole fraction) (in transcutol, 303.2 K) of the same molecule?
Answer: Its solubility (mole fraction) is 0.0022.

Question: What about the solubility (mole fraction) (in transcutol, 308.2 K) of the same molecule?
Answer: Its solubility (mole fraction) is 0.00337.

Question: What about the solubility (mole fraction) (in transcutol, 313.2 K) of the same molecule?
Answer: Its solubility (mole fraction) is 0.0046.

Question: And the solubility (mole fraction) (in transcutol, 318.2 K)?
Answer: The solubility (mole fraction) was 0.00638.

Question: What about the solubility (mole fraction) (in water, 298.2 K) of the same molecule?
Answer: The solubility (mole fraction) was 1.85e-05.

Question: And the solubility (mole fraction) (in water, 303.2 K)?
Answer: Its solubility (mole fraction) is 2.24e-05.

Question: And the solubility (mole fraction) (in water, 308.2 K)?
Answer: Its solubility (mole fraction) is 2.72e-05.

Question: And the solubility (mole fraction) (in water, 313.2 K)?
Answer: The solubility (mole fraction) was 3.18e-05.

Question: What about the solubility (mole fraction) (in water, 318.2 K) of the same molecule?
Answer: Its solubility (mole fraction) is 3.69e-05.
